From patent US9404140B1, “Patterned cardiomyocyte culture on microelectrode array” (The University of Central Florida Research Foundation, Inc., priority 2009, dated 2016)
Entries after “also recorded” stand apart in the source; their conditions may differ.

Tested on: patterned neonatal rat cardiomyocytes
Test: Multielectrode extracellular recordings from patterned spontaneously beating cardiomyocytes on MEAs (drug effect)
Type: cell-based
Method: MEAs containing 60, 10 μm diameter electrodes (Multichannel Systems, Germany) were cleaned by soaking the arrays in a detergent solution for 2 hours followed by sonication for 10 minutes. The arrays were then oxygen plasma cleaned for 20 minutes. Surface modification was completed by incubation of the MEAs in a 3 mM PEG silane, 2-[Methoxypoly(ethyleneoxy)propyl]trimethoxysilane (MW=460-590, Gelest), solution in toluene, with 37% concentrated HCL added to achieve a final value of 0.08% (0.8 ml HCL/L), for 45 minutes at room temperature. The arrays were then rinsed once in toluene, twice in ethanol, twice in water and sonicated in water for 2 minutes to remove the non-covalently linked material. The arrays were air dried with nitrogen and stored in a dessicator overnight.
The MEAs were patterned by laser ablation photolithography using a deep UV (193 nm) excimer laser (Lambda Physik) at a pulse power of 230 mW and a frequency of 10 Hz for 45 seconds through a quartz photomask (Bandwidth foundry, Eveleigh, Australia). The arrays were sterilized using 70% isopropanol and then incubated with 5 μg/ml of fibronectin in a Phosphate buffered solution (Invitrogen) for 20 minutes at room temperature. The solution was removed and the surface was first rinsed with PBS, followed by the plating medium, and then dried before the cells were plated.
The neonatal rat cardiomyocyte culture was prepared using the cardiac isolation kit from Worthington[40]. All animal work was approved by the UCF IACUC and followed NIH guidelines. Briefly, two day-old rat pups were euthanized in a precharged CO2 chamber. Hearts were dissected and minced in ice cold Hanks balanced salt solution (HBSS). Cardiac myocytes were dissociated by incubation of the hearts in trypsin (100 μg/ml in HBSS) for 16 hours at 2-8° C. The hearts in the trypsin solution were briefly warmed with a trypsin inhibitor before adding collegenase (300 units/ml in L-15 medium) for 45 minutes in a water bath at 37° C. followed by mechanical trituration. The cell solution was filtered to remove any remaining tissue and centrifuged at 50 g for 5 minutes at 22° C. The cells were resuspended in high glucose Dulbecco's modified eagle medium (DMEM, Gibco/Invitrogen) supplemented with 10 ml Fetal Bovine Serum (Gibco/Invitrogen) and 1 ml penicillin streptomycin (Gibco/Invitrogen), preplated in Petri dishes and incubated at 37° C. and in 5% CO2 for 45 minutes. This was necessary to eliminate the fibroblasts. The supernatant from the Petri dishes was centrifuged at 50 g for 5 min at 22° C. The cells were then resuspended in the plating medium. The serum-free plating medium consisted of: 100 ml Ultraculture medium (Bio Whittaker Cambrex) supplemented with 10 ml B27, 1 ml L-glutamine (Gibco/Invitrogen), 1 ml Penicillin Streptomycin, 0.375 g dextrose (Fisher Scientific) in 800 μl water, 1 ml non-essential amino acids and 1 ml of Hepes buffer (Gibco/Invitrogen)[41]. Additional growth factors were also added to improve cell survival in the serum-free conditions. They included 0.1 μg/ml of L-thyroxine, 10 ng/ml of Epidermal growth factor (Sigma-aldrich) and 0.5 μg/ml of Hydrocortisone (BD biosciences). Cells were plated at a density of 1000 cells/mm^2 on the MEAs. The medium was changed 24 hours after plating. Subsequent changing of the medium was performed every third day.
The cardiac myocytes were cultured on patterned metal MEAs (Planar 10 μm electrodes, 200 μm separation, Multichannel-systems). A 60 channel amplifier (MEA1040, Multichannel-systems) was used to record electrical activity from the spontaneously beating cardiac cells. The same electrodes were also used for stimulation utilizing a stimulus generator (STG 1002, Multichannel systems). The cells were stimulated utilizing 500 mV, 1 ms wide bipolar pulses at 2 Hz. The recording medium was the same as the plating medium with the pH adjusted to 7.3 using HEPES buffer. […]

[1] = 2 μM Sparfloxacin in recording medium

Row | Structure (SMILES) | Beating pattern, synchrony and conduction (in words) [1] | Field potential (FP) length [1] | Time to significant change in the spontaneous beating frequency [1] [min] | Conduction velocity (CV) (50 μM 1-Heptanol in recording medium, spontaneously beating cells, n=4 MEAs, before treatment 0.197±0.014 m/s) [m/s] | Time for propagation of the excitation wave versus value before treatment (50 μM 1-Heptanol, FPs recorded at 15 minute intervals) | Effect on CV in the cardiac myocyte monolayers (in words) (1-Heptanol, 50 μM) | Synchronicity of the beating cells (1-Heptanol, 50 μM) | Conduction velocity (CV), propagation of excitation after the drug (1-Heptanol, between electrodes 84 and 52 of the pattern, before drug 0.197 m/sec, FIG. 5) [m/sec]
1 | C[C@@H]1CN(c2c(F)c(N)c3c(=O)c(C(=O)O)cn(C4CC4)c3c2F)C[C@H](C)N1 [Sparfloxacin] | burst like activity with higher intra-burst frequencies and no synchrony between electrodes; also recorded: non-synchronous contractions similar to fibrillation and burst-like beating activity; also recorded: caused fibrillations which initiated a complete conduction block | increased FP length | ≤ 25 |  |  |  |  | 
2 | CCCCCCCO [1-Heptanol] |  |  |  | 0.0066±0.0004 | significantly increased | drastically decreased the CV in the cardiac myocyte monolayers without completely blocking the conduction | maintaining the synchronicity of the beating cells | 0.0066
